{"source": "patent US20140271770A1", "about": "“Methods And Compositions For Treating Post-Operative Pain Comprising Clonidine” (WARSAW ORTHOPEDIC, INC., priority 2013, published 2014)", "test": "14 day pharmacokinetic study, clonidine strips implanted in intermuscular pockets, plasma clonidine by LC/MS/MS", "assay_type": "in vivo, beagle dogs", "settings": "mannitol as excipient in the clonidine strips", "excerpt": "Clonidine strips were surgically implanted in intermuscular pockets in beagle dogs to evaluate the in vivo clonidine elution and plasma clonidine concentrations. Four male and four female dogs were divided into two groups of two (per sex). Group 1 received 6 strips of formulation 640-51 (5% clonidine HCl, 5% mannitol, 60:40 LCL 5A polymer, micronized API) and Group 2 received 6 strips of formulation 640-73 (4% clonidine HCl, 7.5% mannitol, 60:40 LCL 5A polymer, milled 25 micron API).\nBlood was drawn at 30 minutes and 1, 2, 4, 8, and 24 hours post-implant. Blood was then drawn daily through day 7, and again at days 10 and 14. The blood was processed to plasma and the clonidine concentration in the plasma was determined by high performance liquid chromatography and tandem mass spectroscopy (LC/MS/MS)."}
{"compound": "OC[C@@H](O)[C@@H](O)[C@H](O)[C@H](O)CO", "note": "[Mannitol]", "values": [{"measurement": "effect on drug release within the first 72 hours", "result": "speeds up drug release"}]}
